Measurements from patent publication US20070128217A1 (priority 2003, published 2007).

Assays:
[1] = test system: rabbit serum obtained by immunizing a rabbit with the SARS-CoV strain Frankfurt 1; format: binding; parameters: Binding of a rabbit serum to linear peptides / Binding of a rabbit serum to looped peptides / Rabbit serum linear peptides / Rabbit serum looped peptides / Binding of a rabbit serum to linear peptides of protein N of SARS-CoV Urbani (Rabbit serum linear peptides) / Binding of a rabbit serum to looped/cyclic peptides of protein N of SARS-CoV Urbani (Rabbit serum looped peptides): unit not given here
[2] = test system: control sera (pooled serum of ten healthy LUMC hospital workers; commercial negative donor pooled serum from the Dutch bloodbank); format: binding, human; parameters: Binding of Control serum LUMC to linear peptides / Binding of Control serum Blood-bank to linear peptides / Binding of Control serum LUMC to looped peptides / Binding of Control Serum Blood-Bank to Looped peptides / Binding of Control serum LUMC to linear peptides of the protein M of SARS-CoV Urbani / Binding of Control serum Blood-bank to linear peptides of the protein M of SARS-CoV Urbani / Binding of Control serum LUMC to looped peptides of the protein M of SARS-CoV Urbani / Binding of Control Serum Blood-Bank to Looped peptides of the protein M of SARS-CoV Urbani: unit not given here
[3] = test system: recombinant human anti-SARS-CoV antibody 03-018; format: binding; parameters: Binding of antibody 03-018 to linear peptides of the N protein of SARS-CoV Urbani / Binding of antibody 03-018 to looped/cyclic peptides of the N protein of SARS-CoV Urbani: unit not given here
[4] = test system: antibodies in sera from SARS patients (sera 1a, 1b, 2, 6, 37, 62, London, SARS-yellow, SARS-green); format: binding, human; parameters: Binding of serum 6 to linear peptides of protein X1 of SARS-CoV Urbani / Binding of serum 37 to linear peptides of protein X1 of SARS-CoV Urbani / Binding of serum 6 to looped/cyclic peptide (PEPSCAN-ELISA) / Binding of serum 37 to looped/cyclic peptide (PEPSCAN-ELISA) / Binding of serum 37 to looped/cyclic peptides of protein X1 of SARS-CoV Urbani / Binding of serum 6 to linear peptides of protein X2 / Binding of serum 37 to linear peptides of protein X2 / Binding of serum 37 to looped/cyclic peptides of protein X2 of SARS-CoV Urbani / Binding of serum 6 to linear peptides of protein M of SARS-CoV Urbani / Binding of serum 37 to linear peptides of protein M of SARS-CoV Urbani / Binding of serum 6 to looped/cyclic peptides of protein M of SARS-CoV Urbani / Binding of serum 37 to looped/cyclic peptides of protein M of SARS-CoV Urbani / Binding of serum 6 to linear peptides of protein X3 of SARS-CoV Urbani / Binding of serum 37 to linear peptides of protein X3 of SARS-CoV Urbani / Binding of serum 37 to looped/cyclic peptides of protein X3 of SARS-CoV Urbani / Binding of serum 6 to linear peptides of protein X4 of SARS-CoV Urbani / Binding of serum 37 to linear peptides of protein X4 of SARS-CoV Urbani / Binding of serum 37 to looped/cyclic peptides of protein X4 of SARS-CoV Urbani / Binding of serum 6 to linear peptides of protein X5 of SARS-CoV Urbani / Binding of serum 37 to linear peptides of protein X5 of SARS-CoV Urbani / Binding of serum 37 to looped/cyclic peptides of protein X5 of SARS-CoV Urbani / Binding of serum 6 to linear peptides of protein N of SARS-CoV Urbani / Binding of serum 37 to linear peptides of protein N of SARS-CoV Urbani / Binding of serum 6 to linear peptide (PEPSCAN-ELISA) / Binding of serum 1a to looped/cyclic peptides of protein N of SARS-CoV Urbani / Binding of serum 1b to looped/cyclic peptides of protein N of SARS-CoV Urbani / Binding of serum 2 to looped/cyclic peptides of protein N of SARS-CoV Urbani / Binding of serum 6 to looped/cyclic peptides of protein N of SARS-CoV Urbani / Binding of serum 37 to looped/cyclic peptides of protein N of SARS-CoV Urbani / Binding of serum 62 to looped/cyclic peptides of protein N of SARS-CoV Urbani / Binding of serum London to looped/cyclic peptides of protein N of SARS-CoV Urbani / Binding of serum SARS-green to looped/cyclic peptides of protein N of SARS-CoV Urbani: unit not given here

Sequence | Binding of a rabbit serum to linear peptides of protein N of SARS-CoV Urbani (Rabbit serum linear peptides) [1] | Binding of a rabbit serum to looped/cyclic peptides of protein N of SARS-CoV Urbani (Rabbit serum looped peptides) [1] | Binding of serum 1a to linear peptides of protein N of SARS-CoV Urbani [4] | Binding of serum 1b to linear peptides of protein N of SARS-CoV Urbani [4] | Binding of serum 2 to linear peptides of protein N of SARS-CoV Urbani [4] | Binding of serum 6 to linear peptides of protein N of SARS-CoV Urbani [4] | Binding of serum 37 to linear peptides of protein N of SARS-CoV Urbani [4] | Binding of serum 62 to linear peptides of protein N of SARS-CoV Urbani [4] | Binding of serum London to linear peptides of protein N of SARS-CoV Urbani [4] | Binding of serum SARS-green to linear peptides of protein N of SARS-CoV Urbani [4] | Binding of serum SARS-yellow to linear peptides of protein N of SARS-CoV Urbani [4] | Binding of serum 1a to looped/cyclic peptides of protein N of SARS-CoV Urbani [4] | Binding of serum 1b to looped/cyclic peptides of protein N of SARS-CoV Urbani [4] | Binding of serum 2 to looped/cyclic peptides of protein N of SARS-CoV Urbani [4] | Binding of serum 6 to looped/cyclic peptides of protein N of SARS-CoV Urbani [4] | Binding of serum 37 to looped/cyclic peptides of protein N of SARS-CoV Urbani [4] | Binding of serum 62 to looped/cyclic peptides of protein N of SARS-CoV Urbani [4] | Binding of serum London to looped/cyclic peptides of protein N of SARS-CoV Urbani [4] | Binding of serum SARS-green to looped/cyclic peptides of protein N of SARS-CoV Urbani [4] | Binding of serum SARS-yellow to looped/cyclic peptides of protein N of SARS-CoV Urbani [4] | also measured
PQRQKKQPTVTLLPA | 0.2 | 0.7 | 0.3 | 0.2 | 0.3 | 0.2 | 0.7 | 0.7 | 0.5 | 0.5 | 0.6 | – | – | – | – | – | – | – | – | – | Control Serum Blood-Bank Looped peptides [2]: 0.9; Control serum Blood-bank linear peptides [2]: 0.8; Control serum LUMC linear peptides [2]: 0.7; Control serum LUMC looped peptides [2]: 0.7; Binding of antibody 03-018 to linear peptides of the N protein of SARS-CoV Urbani [3]: 0.1; Binding of antibody 03-018 to looped/cyclic peptides of the N protein of SARS-CoV Urbani [3]: 0.3; Recognition of the peptide by sera of SARS-CoV infected individuals, and form (linear, looped/cyclic) in which it is recognized [4]: recognized in looped/cyclic form
PQSNQRSAPRITFGG | – | – | 0.3 | 0.2 | 0.2 | 0.1 | 0.6 | 0.6 | 0.4 | 0.3 | 0.5 | 0.5 | 0.3 | 0.5 | 0.5 | 0.8 | 0.7 | 0.5 | 0.4 | 0.6 | Recognition of the peptide by the rabbit serum [1]: also recognized; Binding of Control Serum Blood-Bank to Looped peptides [2]: 0.8; Binding of Control serum Blood-bank to linear peptides [2]: 0.5; Binding of Control serum LUMC to linear peptides [2]: 0.6; Binding of Control serum LUMC to looped peptides [2]: 0.7; Recognition of the peptide by antibody 03-018 [3]: recognized
PRGQGVPINTNSGPD | 0.1 | 0.0 | 0.2 | 0.1 | 0.1 | 0.1 | 0.6 | 0.4 | 0.4 | 0.2 | 0.6 | 0.2 | 0.1 | 0.2 | 0.1 | 0.3 | 0.2 | 0.2 | 0.1 | 0.1 | Binding of Control Serum Blood-Bank to Looped peptides [2]: 0.4; Binding of Control serum Blood-bank to linear peptides [2]: 0.7; Binding of Control serum LUMC to linear peptides [2]: 0.5; Binding of Control serum LUMC to looped peptides [2]: 0.3; Binding of antibody 03-018 to linear peptides of the N protein of SARS-CoV Urbani [3]: 0.1; Binding of antibody 03-018 to looped/cyclic peptides of the N protein of SARS-CoV Urbani [3]: 0.2
PRITFGGPTDSTDNN | 0.3 | 0.4 | 0.2 | 0.1 | 0.2 | 0.1 | 0.7 | 0.6 | 0.5 | 0.6 | 0.3 | 0.3 | 0.2 | 0.3 | 0.2 | 0.7 | 0.5 | 0.3 | 0.8 | 0.4 | Binding of Control Serum Blood-Bank to Looped peptides [2]: 0.6; Binding of Control serum Blood-bank to linear peptides [2]: 0.6; Binding of Control serum LUMC to linear peptides [2]: 0.5; Binding of Control serum LUMC to looped peptides [2]: 0.6; Recognition of the peptide by antibody 03-018 [3]: recognized
PSASAFFGMSRIGME | 0.1 | 0.3 | 0.2 | 0.1 | 0.1 | 0.1 | 0.6 | 0.5 | 0.5 | 0.1 | 0.6 | 0.4 | 0.3 | 0.3 | 0.2 | 0.6 | 0.4 | 0.3 | 0.3 | 0.4 | Control Serum Blood-Bank Looped peptides [2]: 0.4; Control serum Blood-bank linear peptides [2]: 0.6; Control serum LUMC linear peptides [2]: 0.6; Control serum LUMC looped peptides [2]: 0.5; Binding of antibody 03-018 to linear peptides of the N protein of SARS-CoV Urbani [3]: 0.1; Binding of antibody 03-018 to looped/cyclic peptides of the N protein of SARS-CoV Urbani [3]: 0.2
